{"source": "paper PMC5691054", "about": "“An unexpected protein interaction promotes drug resistance in leukemia” (Nature Communications, 2017)", "key": {"[1]": {"target": "T1, ABCC4-PDZ motif and MPP1 interaction (Homo sapiens, UniProt O15439+Q00013)", "T1 sequence (Q00013 1-466)": "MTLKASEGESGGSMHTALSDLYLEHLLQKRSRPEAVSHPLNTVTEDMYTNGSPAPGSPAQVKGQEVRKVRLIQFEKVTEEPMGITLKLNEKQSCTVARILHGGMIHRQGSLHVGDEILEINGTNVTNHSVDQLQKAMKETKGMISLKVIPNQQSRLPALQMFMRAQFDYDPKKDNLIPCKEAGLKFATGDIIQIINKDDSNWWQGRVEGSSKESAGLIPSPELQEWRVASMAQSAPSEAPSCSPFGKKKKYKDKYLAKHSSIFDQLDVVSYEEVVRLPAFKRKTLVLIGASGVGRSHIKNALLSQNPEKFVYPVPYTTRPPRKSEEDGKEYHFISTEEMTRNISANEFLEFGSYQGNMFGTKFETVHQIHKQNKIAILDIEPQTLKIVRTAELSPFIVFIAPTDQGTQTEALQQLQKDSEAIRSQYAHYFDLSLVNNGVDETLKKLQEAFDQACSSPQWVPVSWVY", "T1 sequence (O15439 1301-1325)": "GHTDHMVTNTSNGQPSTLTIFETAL", "assay": "biochemical", "conditions": "for IC50: 10 concentrations 3.5 nM to 70 μM"}, "[2]": {"system": "primary AML cells from adult patients", "assay": "Annexin V/PI apoptosis in primary AML patient samples", "assay_type": "cell-based, Human", "conditions": "50 or 100 µM cytarabine + 10 nM Antimycin A 4 h, then 44 h ± Antimycin A; triplicates; in words", "description": "Primary AML cells from adult patients were treated with either vehicle, 50 or 100 µM cytarabine, 10 nM Antimycin A, or the combination of 50 or 100 µM cytarabine + 10 nM Antimycin A for 4 h. Post treatment, the cells were washed with fresh media (2×) and resuspended in the absence or presence of 10 nM Antimycin A and cultured for an additional 44 h (for a total treatment time of 48 h). The cells were then stained with Annexin V-fluorescein isothiocyanate (FITC)/propidium iodide (PI) apoptosis Kit (Beckman Coulter; Brea, CA, USA). The stage of apoptotic cells (Annexin V-positive, but early or late apoptosis) is identified by the proportion of AnnexinV+/PI− (early apoptosis) and Annexin V+/PI+ (late apoptosis) cells. This experiment was performed once in triplicates (presented as average ± SEM) due to the limited sample availability. Patient samples were selected based on the availability of an adequate number of cells to perform the assay."}, "MO7e cells": {"system": "MO7e cells", "assay": "Cytarabine cytotoxicity in MO7e cells", "assay_type": "cell-based, Human", "conditions": "in words", "description": "MO7e cells were seeded at 1500 cells per well of a 96-well plate. Cells were then treated with Cytarabine at increasing concentrations ranging from 0.5 to 500 μM for 4 h in serum-free media. Cells were washed three times with PBS and replaced with fresh complete media for 68 h. Cell viability analysis was determined using CellTiter Glo. Where applicable, cells were treated with 10 nM Antimycin A. IC50 values were calculated using GraphPad Prism."}, "[3]": {"system": "ABCC4 at the plasma membrane", "assay": "Surface biotinylation of ABCC4", "assay_type": "cell-based", "conditions": "Antimycin A, Fig. 6f, in words", "description": "MO7e, Meg01, or transfected HEK293 cells were treated with trypsin, washed in PBS (pH 8) and incubated with 0.8 mM EZ-Link Sulfo-NHS-SS-Biotin (Pierce) solution for 30 min at room temperature with gentle agitation. Following incubation, the biotin molecules were quenched with 25 mM tris (pH 8) solution containing 0.1 M glycine before cell lysis using MPER (Thermo Scientific) containing a protease inhibitor cocktail (Roche). A volume of 20 µl of the lysate was removed for the total lysate control and the remaining lysate was incubated with avidin-agarose beads (Pierce) for 18 h on a rotatory shaker at 4 °C. The agarose beads attached to cell surface proteins were then separated from the lysate containing cytosolic proteins by centrifugation and the three samples (input, supernatant and pellet) were analyzed by immunoblotting."}, "Meg01 cells": {"system": "Meg01 cells", "assay": "6MP cytotoxicity in Meg01 cells", "assay_type": "cell-based, Human", "conditions": "Antimycin A 10 nM, in words", "description": "HEK293 cells transfected with ABCC4 or ABCC4ΔC in the presence or absence of MPP1, MO7e, and Meg01 cells were treated with 10 concentrations of 6MP, ranging from 1 to 1000 µM, for 96 h. Cell viability analysis was determined using CellTiter Glo (Promega). Where applicable, cell penetrating peptides conjugated to the PDZ-binding motif of ABCC4 (labeled either ABCC4-PDZ or ABCC4ΔC) were added to the cells at 20 μM. Media was changed daily and new ABCC4-PDZ/ABCC4ΔC peptide and 6MP was added. IC50 values were calculated using GraphPad Prism.\nThe Meg01, MO7e, and ABCC4 KO MO7e cell lines were plated at 1500 cells per well in a 96-well plate. Cells were treated with 10 concentrations of Antimycin A (Santa Cruz) ranging from 0.01 to 1000 μM. Cell viability was determined using CellTiter Glo (Promega). Meg01, MO7e, and ABCC4 KO MO7e cells in the presence or absence of 10 nM Antimycin A were treated with 10 concentrations of 6MP, ranging from 1 to 1000 µM, for 96 h. Cell viability analysis was determined using CellTiter Glo. IC50 values were calculated using GraphPad Prism."}, "[4]": {"system": "mitochondrial complex III", "parameters": "method as in PMID 6257713", "conditions": "in words; cited from earlier work", "quoted_text": "Among the 11,297 chemicals tested, 219 of them (144 unique molecules) had >30% inhibition and were selected for further dose-response analysis using 10 concentrations ranging from 3.5 nM to 70 μM."}, "[5]": {"system": "mitochondrial function of MO7e and ABCC4 KO MO7e cells", "assay": "Mitochondrial function (relative ATP, TMRE, MitoTracker Green)", "assay_type": "cell-based, Human", "conditions": "10 nM", "description": "WT and ABCC4 KO MO7e cells were treated with DMSO or 10 nM Antimycin A before incubation with TMRE or MitoTracker Green (Life Technologies) for 15 min. After incubation, cells were analyzed with BD Biosciences flow cytometer and mean fluorescence intensity was calculated. Relative ATP amounts were determined by the CellTiter Glo Assay."}, "[6]": {"system": "murine hematopoietic progenitor cells (HPC)", "assay": "Hematopoietic progenitor cell serial replating in methylcellulose", "quoted_text": "In these experiments, littermates were used as controls. Bone marrow from 8- to 12-week-old female virgin C57/BL6 mice were harvested. Progenitors were enriched by incubating with lineage-PE antibodies (CD4, CD8, Mac1, Gr1, NK1.1, B220, and Ter119) and separated using AutoMACS Pro (Miltenyi). Hematopoetic progenitor cells were cultured in the presence of recombinant murine SCF (rmSCF), IL3 (rmIL3), and IL6 (rmIL6) (Peprotech; all 50 ng/ml) for 48 h before transduction on RetroNectin (Takara) coated plates. Retroviral supernatant containing media was produced by transient transfection of HEK293T cells with MSCV based retroviral plasmids encoding either MYCN-ires-YFP or MPP1-ires-CFP as previously described[35]. Forty-eight hours post transduction, cells were harvested, sorted for either YFP or CFP expression, and plated on methylcellulose containing IL3, IL6, SCF, and EPO (Stem Cell Technologies). Colonies were counted after 7 days growth at 37 °C, harvested, and replated."}}, "note": "“Also recorded” adds a separate entry of the source. Where two headings read alike, the source gives them in different places.", "data": [{"smiles": "CCCCCC[C@H]1C(=O)O[C@H](C)[C@H](NC(=O)c2cccc(NC=O)c2O)C(=O)O[C@@H](C)[C@@H]1OC(=O)CC(C)C", "note": "[Antimycin A]", "values": [{"measurement": "IC50", "setting": "[1]; 500 nM B-ABCC4, 5 nM His-S-MPP1, 0.7% DMSO, read-out: IC50 for complex disruption (TR-FRET)", "result": "~3", "unit": "nM"}, {"measurement": "IC50", "setting": "[1]; figure value, 500 nM B-ABCC4, 5 nM His-S-MPP1, triplicate, read-out: IC50 for disruption of MPP1 and ABCC4 interaction (TR-FRET)", "result": 3.9, "unit": "nM"}, {"measurement": "TR-FRET dose response / disruption of interaction", "setting": "[1]; in words", "result": "the most potent"}, {"measurement": "Antimycin A enhancement of cytarabine-induced apoptosis in primary AML samples", "setting": "[2]", "result": "Three of the 5 patients; also recorded: enhanced cytarabine cytoxicity in three primary AML patient samples; also recorded: did not show enhancement on cytarabine-induced apoptosis; also recorded: increased Annexin V^+ percentage of cells with combination treatment of Antimycin A and cytarabine vs cytarabine alone"}, {"measurement": "effect of Antimycin A on cytarabine sensitivity", "setting": "MO7e cells; MO7e vs. MO7e-ABCC4 knockout, Antimycin A 10 nM", "result": "specifically sensitized MO7e cells to Cytarabine, but not MO7e-ABCC4 knockout cells; also recorded: specifically sensitizes ABCC4 expressing MO7e cells, but not ABCC4 KO cells"}, {"measurement": "effect of co-treatment on IC50 for cytarabine", "setting": "MO7e cells; peer review file", "result": "reduce the IC50 for cytarabine"}, {"measurement": "surface / plasma membrane ABCC4", "setting": "[3]", "result": "reduces ABCC4 at the plasma membrane"}, {"measurement": "effect of Antimycin A on 6MP sensitivity", "setting": "Meg01 cells", "result": "sensitized to 6MP by Antimycin A (10 nM)"}, {"measurement": "mitochondrial complex III inhibition", "setting": "[4]", "result": "mitochondrial complex III inhibitor at micromolar concentration"}, {"measurement": "relative ATP", "setting": "[5]; CellTiter Glo, triplicate", "result": "Equal relative"}, {"measurement": "effect on mitochondrial function", "setting": "[5]; in words", "result": "does not selectively affect the mitochondrial; also recorded: minimal effect on mitochondria; also recorded: not exclusively disruptive to mitochondrial function in cells lacking or containing ABCC4"}, {"measurement": "effect on MPP1-driven methylcellulose replating", "setting": "[6]; HPC transduced with MPP1, Antimycin A 10 nM, triplicate", "result": "blocked replating of MPP1 overexpressing HSC; also recorded: attenuated"}, {"measurement": "effect on colony formation of normal hematopoietic progenitors", "setting": "[6]; normal hematopoietic progenitors, Antimycin A 10 nM (peer review file)", "result": "did not effect; also recorded: does not reduce the"}]}]}
